{
  "source": "ChEMBL document CHEMBL3046274",
  "about": "“Toxicity of imidacloprid to developmental stages of Rhynchophorus ferrugineus (Curculionidae: Coleoptera): Laboratory and field tests” (Crop Prot, 2006)",
  "format_in_all_cases": "functional",
  "key": {"[1]": {"tested_on": "Rhynchophorus ferrugineus", "experiment": "Pesticidal activity against adult Rhynchophorus ferrugineus (red palm weevil) assessed as mortality at 100 ppm administered topically at 36 hr post-treatment"}, "[2]": {"tested_on": "Rhynchophorus ferrugineus", "experiment": "Pesticidal activity against adult Rhynchophorus ferrugineus (red palm weevil) assessed as mortality at 2 ppm, po at 48 hr post-treatment relative to control"}, "[3]": {"tested_on": "Rhynchophorus ferrugineus", "experiment": "Pesticidal activity against adult Rhynchophorus ferrugineus (red palm weevil) assessed as mortality at 300 ppm administered topically at 48 hr post-treatment"}, "[4]": {"tested_on": "Rhynchophorus ferrugineus", "experiment": "Pesticidal activity against Rhynchophorus ferrugineus (red palm weevil) cocoon assessed as mortality at 4 ppm administered by dipping for 3 min measured at 48 hr post-treatment relative to control"}, "[5]": {"tested_on": "Rhynchophorus ferrugineus", "experiment": "Pesticidal activity against adult Rhynchophorus ferrugineus (red palm weevil) assessed as mortality at 1 ppm, po at 18 hr post-treatment relative to control"}, "[6]": {"tested_on": "Rhynchophorus ferrugineus", "experiment": "Pesticidal activity against Rhynchophorus ferrugineus (red palm weevil) larvae assessed as mortality at 100 ppm administered topically at 48 hr post-treatment"}, "[7]": {"tested_on": "Rhynchophorus ferrugineus", "experiment": "Contact toxicity against Rhynchophorus ferrugineus (red palm weevil) adults assessed as time required for 50% mortality at 2.5 ml/l for 2 min"}, "[8]": {"tested_on": "Rhynchophorus ferrugineus", "experiment": "Pesticidal activity against Rhynchophorus ferrugineus (red palm weevil) cocoon assessed as mortality at 0.5 ppm administered by dipping for 3 min measured at 90 hr post-treatment relative to control"}, "[9]": {"tested_on": "Rhynchophorus ferrugineus", "experiment": "Pesticidal activity against Rhynchophorus ferrugineus (red palm weevil) cocoons assessed as time required for total mortality at 2.5 ml/l administered by dipping for 30 secs"}, "[10]": {"tested_on": "Rhynchophorus ferrugineus", "experiment": "Pesticidal activity against adult Rhynchophorus ferrugineus (red palm weevil) assessed as mortality at 1.5 ppm, po at 24 hr post-treatment relative to control"}, "[11]": {"tested_on": "Rhynchophorus ferrugineus", "experiment": "Pesticidal activity against Rhynchophorus ferrugineus (red palm weevil) larvae assessed as mortality at 1.5 ppm, po at 72 hr post-treatment relative to control"}, "[12]": {"tested_on": "Rhynchophorus ferrugineus", "experiment": "Pesticidal activity against Rhynchophorus ferrugineus (red palm weevil) larvae assessed as mortality at 2 ppm, po at 114 hr post-treatment relative to control"}, "[13]": {"tested_on": "Rhynchophorus ferrugineus", "experiment": "Pesticidal activity against Rhynchophorus ferrugineus (red palm weevil) larvae assessed as mortality at 6 ppm, po at 18 hr post-treatment relative to control"}, "[14]": {"tested_on": "Rhynchophorus ferrugineus", "experiment": "Pesticidal activity against Rhynchophorus ferrugineus (red palm weevil) cocoon assessed as mortality at 20 ppm administered by dipping for 3 min measured at 18 hr post-treatment relative to control"}, "[15]": {"tested_on": "Rhynchophorus ferrugineus", "experiment": "Pesticidal activity against Rhynchophorus ferrugineus (red palm weevil) cocoon assessed as mortality at 1 ppm administered by dipping for 3 min measured at 48 hr post-treatment relative to control"}, "[16]": {"tested_on": "Rhynchophorus ferrugineus", "experiment": "Pesticidal activity against adult Rhynchophorus ferrugineus (red palm weevil) assessed as mortality at 0.5 ppm, po at 18 hr post-treatment relative to control"}, "[17]": {"tested_on": "Rhynchophorus ferrugineus", "experiment": "Contact toxicity against Rhynchophorus ferrugineus (red palm weevil) adults assessed as time required for 50% reversible knockdown at 1.5 ml/l for 2 min"}, "[18]": {"tested_on": "Rhynchophorus ferrugineus", "experiment": "Contact toxicity against Rhynchophorus ferrugineus (red palm weevil) adults assessed as time required for 100% mortality at 3.5 ml/l for 5 min"}, "[19]": {"tested_on": "Rhynchophorus ferrugineus", "experiment": "Pesticidal activity against adult Rhynchophorus ferrugineus (red palm weevil) assessed as mortality at 300 ppm administered topically at 18 hr post-treatment"}, "[20]": {"tested_on": "Rhynchophorus ferrugineus", "experiment": "Pesticidal activity against Rhynchophorus ferrugineus (red palm weevil) cocoons assessed as time required for total mortality at 1.5 ml/l administered by dipping for 5 secs"}, "[21]": {"tested_on": "Rhynchophorus ferrugineus", "experiment": "Pesticidal activity against adult Rhynchophorus ferrugineus (red palm weevil) infested date palm tree assessed as mortality of collected live stage at 20 ml/4l of water applied through soil-drench irrigation measured after 3 weeks relative to control"}, "[22]": {"tested_on": "Rhynchophorus ferrugineus", "experiment": "Pesticidal activity against Rhynchophorus ferrugineus (red palm weevil) larvae assessed as mortality at 1 ppm, po at 18 hr post-treatment relative to control"}, "[23]": {"tested_on": "Rhynchophorus ferrugineus", "experiment": "Pesticidal activity against Rhynchophorus ferrugineus (red palm weevil) cocoons assessed as time required for total mortality at 3.5 ml/l administered by dipping for 10 secs"}, "[24]": {"tested_on": "Rhynchophorus ferrugineus", "experiment": "Pesticidal activity against Rhynchophorus ferrugineus (red palm weevil) larvae assessed as mortality at 1 ppm, po at 90 hr post-treatment relative to control"}, "[25]": {"tested_on": "Rhynchophorus ferrugineus", "experiment": "Pesticidal activity against Rhynchophorus ferrugineus (red palm weevil) larvae assessed as mortality at 6 ppm, po at 48 hr post-treatment relative to control"}, "[26]": {"tested_on": "Rhynchophorus ferrugineus", "experiment": "Pesticidal activity against Rhynchophorus ferrugineus (red palm weevil) larvae assessed as mortality at 100 ppm administered topically at 18 hr post-treatment"}, "[27]": {"tested_on": "Rhynchophorus ferrugineus", "experiment": "Contact toxicity against Rhynchophorus ferrugineus (red palm weevil) adults assessed as time required for 50% mortality at 3.5 ml/l for 5 min"}, "[28]": {"tested_on": "Rhynchophorus ferrugineus", "experiment": "Contact toxicity against Rhynchophorus ferrugineus (red palm weevil) adults assessed as time required for 100% mortality at 1.5 ml/l for 5 min"}, "[29]": {"tested_on": "Rhynchophorus ferrugineus", "experiment": "Pesticidal activity against adult Rhynchophorus ferrugineus (red palm weevil) assessed as mortality at 1.5 ppm, po at 18 hr post-treatment relative to control"}, "[30]": {"tested_on": "Rhynchophorus ferrugineus", "experiment": "Pesticidal activity against Rhynchophorus ferrugineus (red palm weevil) larvae assessed as mortality at 4 ppm, po at 72 hr post-treatment relative to control"}, "[31]": {"tested_on": "Rhynchophorus ferrugineus", "experiment": "Pesticidal activity against Rhynchophorus ferrugineus (red palm weevil) larvae assessed as mortality at 500 ppm administered topically at 72 hr post-treatment"}, "[32]": {"tested_on": "Rhynchophorus ferrugineus", "experiment": "Pesticidal activity against adult Rhynchophorus ferrugineus (red palm weevil) assessed as mortality at 0.5 ppm, po at 24 hr post-treatment relative to control"}, "[33]": {"tested_on": "Rhynchophorus ferrugineus", "experiment": "Contact toxicity against Rhynchophorus ferrugineus (red palm weevil) adults assessed as time required for 50% reversible knockdown at 3.5 ml/l for 2 min"}, "[34]": {"tested_on": "Rhynchophorus ferrugineus", "experiment": "Pesticidal activity against adult Rhynchophorus ferrugineus (red palm weevil) assessed as mortality at 1 ppm, po at 48 hr post-treatment relative to control"}, "[35]": {"tested_on": "Rhynchophorus ferrugineus", "experiment": "Pesticidal activity against adult Rhynchophorus ferrugineus (red palm weevil) assessed as time required for reversible knockdown at 1.5 ml/l administered topically"}, "[36]": {"tested_on": "Rhynchophorus ferrugineus", "experiment": "Pesticidal activity against adult Rhynchophorus ferrugineus (red palm weevil) assessed as mortality at 1 ppm, po at 114 hr post-treatment relative to control"}, "[37]": {"tested_on": "Rhynchophorus ferrugineus", "experiment": "Pesticidal activity against Rhynchophorus ferrugineus (red palm weevil) larvae assessed as mortality at 1000 ppm administered topically at 36 hr post-treatment"}, "[38]": {"tested_on": "Rhynchophorus ferrugineus", "experiment": "Pesticidal activity against Rhynchophorus ferrugineus (red palm weevil) larvae assessed as mortality at 4 ppm, po at 24 hr post-treatment relative to control"}, "[39]": {"tested_on": "Rhynchophorus ferrugineus", "experiment": "Contact toxicity against Rhynchophorus ferrugineus (red palm weevil) adults assessed as time required for 100% reversible knockdown at 3.5 ml/l for 5 min"}, "[40]": {"tested_on": "Rhynchophorus ferrugineus", "experiment": "Pesticidal activity against Rhynchophorus ferrugineus (red palm weevil) larvae assessed as mortality at 1.5 ppm, po at 18 hr post-treatment relative to control"}, "[41]": {"tested_on": "Rhynchophorus ferrugineus", "experiment": "Pesticidal activity against adult Rhynchophorus ferrugineus (red palm weevil) assessed as mortality at 1.5 ppm, po at 114 hr post-treatment relative to control"}, "[42]": {"tested_on": "Rhynchophorus ferrugineus", "experiment": "Pesticidal activity against Rhynchophorus ferrugineus (red palm weevil) larvae assessed as mortality at 2 ppm, po at 90 hr post-treatment relative to control"}},
  "data": [
    {"smiles": "O=[N+]([O-])/N=C1\\NCCN1Cc1ccc(Cl)nc1", "note": "[IMIDACLOPRID]", "values": [
      {"measurement": "Activity", "setting": "[1]", "value": 38.9, "unit": "%"},
      {"measurement": "Activity", "setting": "[2]", "value": 100, "unit": "%"},
      {"measurement": "Activity", "setting": "[3]", "value": 72.2, "unit": "%"},
      {"measurement": "Activity", "setting": "[4]", "value": 44.4, "unit": "%"},
      {"measurement": "Activity", "setting": "[5]", "value": 38.9, "unit": "%"},
      {"measurement": "Activity", "setting": "[6]", "value": 0, "unit": "%"},
      {"measurement": "Time", "setting": "[7]", "value": 10.1, "unit": "days"},
      {"measurement": "Activity", "setting": "[8]", "value": 38.9, "unit": "%"},
      {"measurement": "Time", "setting": "[9]", "value": 9.2, "unit": "days"},
      {"measurement": "Activity", "setting": "[10]", "value": 72.2, "unit": "%"},
      {"measurement": "Activity", "setting": "[11]", "value": 100, "unit": "%"},
      {"measurement": "Activity", "setting": "[12]", "value": 100, "unit": "%"},
      {"measurement": "Activity", "setting": "[13]", "value": 100, "unit": "%"},
      {"measurement": "Activity", "setting": "[14]", "value": 0, "unit": "%"},
      {"measurement": "Activity", "setting": "[15]", "value": 0, "unit": "%"},
      {"measurement": "Activity", "setting": "[16]", "value": 0, "unit": "%"},
      {"measurement": "Time", "setting": "[17]", "value": 3.2, "unit": "days"},
      {"measurement": "Time", "setting": "[18]", "value": 4.2, "unit": "days"},
      {"measurement": "Activity", "setting": "[19]", "value": 72.2, "unit": "%"},
      {"measurement": "Time", "setting": "[20]", "value": 14.5, "unit": "days"},
      {"measurement": "Activity", "setting": "[21]", "value": 100, "unit": "%"},
      {"measurement": "Activity", "setting": "[22]", "value": 0, "unit": "%"},
      {"measurement": "Time", "setting": "[23]", "value": 6, "unit": "days"},
      {"measurement": "Activity", "setting": "[24]", "value": 100, "unit": "%"},
      {"measurement": "Activity", "setting": "[25]", "value": 100, "unit": "%"},
      {"measurement": "Activity", "setting": "[26]", "value": 0, "unit": "%"},
      {"measurement": "Time", "setting": "[27]", "value": 2.2, "unit": "days"},
      {"measurement": "Time", "setting": "[28]", "value": 8.1, "unit": "days"},
      {"measurement": "Activity", "setting": "[29]", "value": 72.2, "unit": "%"},
      {"measurement": "Activity", "setting": "[30]", "value": 100, "unit": "%"},
      {"measurement": "Activity", "setting": "[31]", "value": 72.2, "unit": "%"},
      {"measurement": "Activity", "setting": "[32]", "value": 0, "unit": "%"},
      {"measurement": "Time", "setting": "[33]", "value": 1.1, "unit": "days"},
      {"measurement": "Activity", "setting": "[34]", "value": 38.9, "unit": "%"},
      {"measurement": "Time", "setting": "[35]", "value": 4, "unit": "days"},
      {"measurement": "Activity", "setting": "[36]", "value": 72.2, "unit": "%"},
      {"measurement": "Activity", "setting": "[37]", "value": 72.2, "unit": "%"},
      {"measurement": "Activity", "setting": "[38]", "value": 100, "unit": "%"},
      {"measurement": "Time", "setting": "[39]", "value": 2.1, "unit": "days"},
      {"measurement": "Activity", "setting": "[40]", "value": 72.2, "unit": "%"},
      {"measurement": "Activity", "setting": "[41]", "value": 100, "unit": "%"},
      {"measurement": "Activity", "setting": "[42]", "value": 100, "unit": "%"}
    ]}
  ]
}
